Data reported in patent US7342039B2, “Substituted indole oximes” (Wyeth, priority 2003, dated 2008).

Tests used:
human PAI-1 = human PAI-1 (Homo sapiens, UniProt P05121); assay: Assay for determining the IC50 of inhibition of PAI-1 (antibody detection of active PAI-1 bound to tPA-coated plate); type: binding; conditions: human PAI-1 50 ng/ml, pH 7.5
Procedure: Assay for determining the IC50 of inhibition of PAI-1. This assay is based upon the non-SDS dissociable interaction between tPA and active PAI-1. Assay plates are initially coated with human tPA (10 μg/ml). Test compounds are dissolved in DMSO at 10 mM, then diluted with physiologic buffer (pH 7.5) to a final concentration of 1-50 μM. The test compounds are incubated with human PAI-1 (50 ng/ml) for 15 minutes at room temperature. The tPA-coated plate is washed with a solution of 0.05% Tween 20 and 0.1% BSA, then the plate is blocked with a solution of 3% BSA. An aliquot of the test compound/PAI-1 solution is then added to the tPA-coated plate, incubated at room temperature for 1 hour, and washed. Active PAI-1 bound to the plate is assessed by adding an aliquot of a 1:1000 dilution of the 33B8 monoclonal antibody against human PAI-1, and incubating the plate at room temperature for 1 hour (Molecular Innovations, Royal Oak, Mich.). The plate is again washed, and a solution of goat anti-mouse IgG-alkaline phosphatase conjugate is added at a 1:50,000 dilution in goat serum. The plate is incubated 30 minutes at room temperature, washed, and a solution of alkaline phosphatase substrate is added. The plate is incubated 45 minutes at room temperature, and color development is determined at OD405 nm. The quantitation of active PAI-1 bound to tPA at varying concentrations of the test compound is used to determine the IC50. Results are analyzed using a logarithmic best-fit equation. The assay sensitivity is 5 ng/ml of human PAI-1 as determined from a standard curve ranging from 0-100 ng/ml.

[1] = target: T1, recombinant human plasminogen activator inhibitor-1 (PAI-1) (Homo sapiens, UniProt P05121); assay: Screening for PAI-1 inhibition (chromogenic residual tPA activity, Spectrozyme-tPA); type: biochemical; conditions: 25 μM test compound; 140 nM PAI-1, 70 nM tPA, pH 6.6
T1 construct: purchased Molecular Innovations, Royal Oak, Mich
T1 sequence (P05121 24-402): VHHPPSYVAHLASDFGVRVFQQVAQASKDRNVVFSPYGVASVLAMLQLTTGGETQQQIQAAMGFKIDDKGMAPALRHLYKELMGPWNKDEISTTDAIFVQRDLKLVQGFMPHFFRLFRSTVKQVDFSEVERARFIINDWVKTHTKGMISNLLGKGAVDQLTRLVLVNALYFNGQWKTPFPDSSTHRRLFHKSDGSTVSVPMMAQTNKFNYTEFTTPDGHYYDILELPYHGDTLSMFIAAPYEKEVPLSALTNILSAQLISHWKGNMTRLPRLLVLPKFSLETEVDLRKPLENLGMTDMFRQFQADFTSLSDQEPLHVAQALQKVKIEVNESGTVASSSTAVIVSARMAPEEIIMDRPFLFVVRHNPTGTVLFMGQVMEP
Procedure: Screening for PAI-1 inhibition. Test compounds are dissolved in DMSO at a final concentration of 10 mM, then diluted 100× in physiologic buffer. The inhibitory assay is initiated by the addition of the test compound (1-100 μM final concentration, maximum DMSO concentration of 0.2%) in a pH 6.6 buffer containing 140 nM recombinant human plasminogen activator inhibitor-1 (PAI-1; Molecular Innovations, Royal Oak, Mich.). Following a 1 hour incubation at room temperature, 70 nM of recombinant human tissue plasminogen activator (tPA) is added, and the combination of the test compound, PAI-1 and tPA is incubated for an additional 30 minutes. Following the second incubation, Spectrozyme-tPA (American Diagnostica, Greenwich, Conn.), a chromogenic substrate for tPA, is added and absorbance read at 405 nm at 0 and 60 minutes. Relative PAI-1 inhibition is equal to the residual tPA activity in the presence of the test compounds and PAI-1. Control treatments include the complete inhibition of tPA by PAI-1 at the molar ratio employed (2:1), and the absence of any effect of the test compound on tPA alone.

Chain of human PAI-1 (P05121 24-402): as above

Structure (SMILES)	IC50 (human PAI-1) [µM]	melting point	inhibition at 25 µM [1] [%]
O=C(O)c1ccc(CO/N=C/c2cn(Cc3ccccc3)c3ccccc23)cc1Br [Compound 3, 4-[({[(1E)-(1-benzyl-1H-indol-3-yl)methylidene]amino}oxy)methyl]-2-bromobenzoic acid]	29.2	–	–
O=C(O)c1ccc(OCCCO/N=C/c2cc3ccccc3n2Cc2ccccc2)cc1O [Compound 5, 4-[3-({[(1E)-(1-benzyl-1H-indol-2-yl)methylidene]amino}oxy)propoxy]-2-hydroxybenzoic acid]	22.4	175 to 176 °C (dec.)	–
Cc1c(/C=N/OCc2ccc(C(=O)O)c(Br)c2)c2ccccc2n1C [Compound 9, 2-bromo-4-[({[(1E)-(1,2-dimethyl-1H-indol-3-yl)methylidene]amino}oxy)methyl]benzoic acid]	–	165 to 166 °C	34
O=C(O)c1ccc(OCCCO/N=C/c2cn(Cc3ccccc3)c3ccccc23)c(-c2ccc(C(F)(F)F)cc2)c1 [Compound 6, 6-[3-({[(1E)-(1-benzyl-1H-indol-3-yl)methylidene]amino}oxy)propoxy]-4′-(trifluoromethyl)-1,1′-biphenyl-3-carboxylic acid]	–	193 to 194 °C	55
CC(C)(C)c1ccc(C(=O)Nc2cc(OCCCO/N=C/c3cn(Cc4ccccc4)c4ccccc34)ccc2C(=O)O)cc1 [Compound 1, 4-[3-({[(1E)-(1-benzyl-1H-indol-3-yl)methylidene]amino}oxy)propoxy]-2-[(4-tert-butylbenzoyl)amino]benzoic acid]	11.8	–	–
Cc1c(/C=N/OCCCOc2ccc(CC(=O)O)cc2)c2ccccc2n1C [Compound 7, {4-[3-({[(1E)-(1,2-dimethyl-1H-indol-3-yl)methylidene]amino}oxy)propoxy]phenyl}acetic acid]	–	–	54
O=C(O)c1ccc(CO/N=C/c2cc3ccccc3n2Cc2ccccc2)cc1Br [Compound 4, 4-[({[(1E)-(1-benzyl-1H-indol-2-yl)methylidene]amino}oxy)methyl]-2-bromobenzoic acid]	12.3	148 to 149 °C	–
O=C(O)c1ccc(OCCCO/N=C/c2cn(Cc3ccccc3)c3ccccc23)cc1O [Compound 2, 4-[3-({[(1E)-(1-benzyl-1H-indol-3-yl)methylidene]amino}oxy)propoxy]-2-hydroxybenzoic acid]	21.6	–	–
O=C(O)c1ccc(OCCCO/N=C/c2cc3ccccc3n2Cc2ccccc2)c(-c2ccc(C(F)(F)F)cc2)c1 [Compound 8, 6-[3-({[(1E)-(1-benzyl-1H-indol-2-yl)methylidene]amino}oxy)propoxy]-4′-(trifluoromethyl)-1,1′-biphenyl-3-carboxylic acid]	–	196 to 197 °C	100
